Usually inhibition stands for the drop in the measured response relative to a control, in per cent. A low value points to little suppression.

Non-standard residues stand in square brackets, D forms with d. Residues, ends and D or L forms follow the SMILES beside them. Cha = N[CH](CC1CCCCC1)C(=O)O; Nle = CCCC[CH](N)C(=O)O; Orn = NCCC[CH](N)C(=O)O

The text below walks through data of patent US7081447B2, “Organic compounds with biological activity as thrombin inhibitors and use thereof” (Novel Science International GmbH, priority 2001, dated 2006).

One assay addresses thrombin (Homo sapiens, UniProt P00734). In words: in vitro inhibition of thrombin amidase activity (fluorogenic substrate Tos-Gly-Pro-Arg-(7-amino-4-methylcoumarin)). In kind it is biochemical. The arrangement: with 10 μL of human thrombin solution. The settings on record: peptide concentration of 250 nM. As for the experimental part:
(§1) The values of the inhibition constant Ki were obtained from assays, in which thrombin hydrolyzes the fluorogenic substrate Tos-Gly-Pro-Arg-(7-amino-4-methylcoumarin). The assays were performed in 30 μL of assay buffer (0.05 M Tris, 0.1 M NaCl, 0.1% PEG 8000, pH 7.6) with 10 μL of human thrombin solution (10^−5 U/μL in assay buffer) and 140 μL of a solution of the fluorogenic substrate in assay buffer at a concentration v of 30 μM. Solutions of the test compound (10 μL) were added at various concentrations. The rates of substrate hydrolysis were measured by monitoring the reactions of 7-amino-4-methylcoumarin release at 460 nm with use of AMC. The reaction reached a steady state within 3 minutes after thrombin was combined with the substrate and an inhibitor. The kinetic data of the competitive inhibition (Km, Vmax, and Ki) were analyzed with the aid of the Hanes plot (A/V vs. A at various i values).
as §1, with “concentration” for “concentration v”, “using” for “with the aid of”, “values for A; here, A is the substrate concentration and V the reaction rate).” for “i values).”
as §1, with “conducted” for “performed”, “concentration” for “concentration v”, “using” for “with the aid of”, “values for A; here, A is the substrate concentration and V the reaction rate).” for “i values).”
With “N-Acetyl-D-Phe-D-Cha-L-Aze-D-Tyr-L-Har amide [Example 77]”, the “Thrombin inhibition (thrombin amidase activity)” value (shortened to “Thrombin inhibition”) is 77%.
On the same count and under the same terms, with “N-Acetyl-L-Ala-D-Cha-L-Aze-D-Tyr-L-Har amide [Example 76]” the figure was 77%; with “N-Acetyl-L-Cha-D-Cha-L-Aze-D-Tyr-L-Har amide [Example 85]”, 90%; with “N-Acetyl-L-Dcp-D-Cha-L-Aze-D-Tyr-L-Har amide [Example 78]”, 75%.
On the same count and under the same terms, the figure for “N-Acetyl-L-Iq3-D-Cha-L-Aze-D-Tyr-L-Har amide [Example 80]” is 72%.

The same assay, now with this note: peptide concentration of 1 μM.
With `CCCCC(NC(=O)C(CC1CCCCC1)NC(=O)C(CCCNC(=N)N)NC(C)=O)C(=O)NC(CC1CCCCC1)C(=O)NC(CCC(=O)O)C(N)=O` [Example 8, N-Acetyl-L-Arg-L-Cha-L-Nle-L-Cha-D-Glu amide] (Ac-R[Cha][Nle][Cha]E-NH2; configuration not given here), testing at 1 µM gave an inhibition of 35%.
Turning to “N-Acetyl-D-Gln-D-His-L-Cha-D-Pro-D-Tyr-L-Arg amide [Example 25]”, the “Thrombin inhibition” value is 59%.
Still for that read-out and setting: the figure for “N-Acetyl-D-Glu-L-Cha-D-Pro-D-Tyr-L-Arg amide [Example 26]” is 58%; for “N-Acetyl-D-Lys-D-Pro-L-Cha-D-Pro-D-Tyr-L-Arg amide [Example 14]” it is 53%.
The same measure, in the same setting: the figure for “N-Acetyl-D-Val-D-His-L-Cha-D-Pro-D-Tyr-L-Arg amide [Example 27]” is 51%.
Still for that read-out and setting: with “N-Acetyl-D-Val-L-Ala-L-Cha-D-Pro-D-Tyr-L-Arg amide [Example 9]” the figure was 53%; with “N-Acetyl-L-Ala-D-Cha-L-Aze-D-Tyr-L-Arg amide [Example 55]”, 63%.
In the case of “N-Acetyl-L-Ala-D-Cha-L-Aze-D-Tyr-L-Har amide [Example 57]”, the “Thrombin inhibition” value was 83%.
Still for that read-out and setting: with “N-Acetyl-L-Ala-D-Cha-L-Pro-D-Tyr-L-Har amide [Example 56]” the figure was 56%; with “N-Acetyl-L-Ala-L-Cha-D-Pro-D-Tyr-L-Arg amide [Example 28]”, 44%; with “N-Acetyl-L-Asp-L-Ser-L-Cha-D-Pro-D-Tyr-L-Arg amide [Example 10]”, 51%.
The same measure, in the same setting: the figure for “N-Acetyl-L-Ile-L-Arg-L-Cha-D-Pro-D-Tyr-L-Arg amide [Example 29]” is 61%.
On the same count and under the same terms, with “N-Acetyl-L-Ile-L-Cha-D-Pro-D-Tyr-L-Arg amide [Example 11]” the figure was 48%.

The assay is the same for the next values; noted with them: peptide concentration of 1 μM; 1 µM.
Turning to “N-Acetyl-D-Lys-L-Nle-L-Cha-D-Pro-D-Tyr-L-Arg amide [Example 20]”, the “Thrombin inhibition” value is listed as 44%.
Still for that read-out and setting: with “N-Acetyl-D-Lys-L-Nle-L-Cha-D-Pro-D-Tyr-L-Arg amide [Example 36]” the figure was 48%; with “N-Acetyl-D-Lys-L-Nle-L-Cha-D-Pro-D-Tyr-L-Arg amide [Example 51]”, 48%; with “N-Acetyl-D-Lys-L-Nle-L-Cha-D-Pro-D-Tyr-L-Arg amide [Example 69]”, 48%.
The same measure, in the same setting: the figure for “N-Acetyl-D-Tyr-L-Cha-D-Pro-D-Tyr-L-Arg amide [Example 24]” is 27%; for “N-Acetyl-D-Tyr-L-Cha-D-Pro-D-Tyr-L-Arg amide [Example 37]” it is 47%; for “N-Acetyl-D-Tyr-L-Cha-D-Pro-D-Tyr-L-Arg amide [Example 52]” it is 47%.
On the same count and under the same terms, with “N-Acetyl-D-Tyr-L-Cha-D-Pro-D-Tyr-L-Arg amide [Example 70]” the figure was 47%; with “N-Acetyl-D-Val-L-Cha-D-Pro-D-Tyr-L-Arg amide [Example 12]”, 46%.
In the case of “N-Acetyl-D-Val-L-Cha-D-Pro-D-Tyr-L-Arg amide [Example 32]”, the “Thrombin inhibition” value amounted to 45%.
On the same count and under the same terms, with “N-Acetyl-D-Val-L-Cha-D-Pro-D-Tyr-L-Arg amide [Example 47]” the figure was 45%; with “N-Acetyl-D-Val-L-Cha-D-Pro-D-Tyr-L-Arg amide [Example 65]”, 45%; with “N-Acetyl-L-Arg-L-Cha-D-Pro-D-Tyr-L-Arg amide [Example 21]”, 38%.
On the same count and under the same terms, with “N-Acetyl-L-Arg-L-Cha-D-Pro-D-Tyr-L-Arg amide [Example 38]” the figure was 47%; with “N-Acetyl-L-Arg-L-Cha-D-Pro-D-Tyr-L-Arg amide [Example 53]”, 47%.
Still for that read-out and setting: with “N-Acetyl-L-Arg-L-Cha-D-Pro-D-Tyr-L-Arg amide [Example 71]” the figure was 47%.

Still in this assay, the particulars now being: peptide concentration of 10 μM.
As to `CCCCC(NC(=O)C(CC1CCCCC1)NC(=O)C(CCCNC(=N)N)NC(C)=O)C(=O)NC(CC1CCCCC1)C(=O)NC(CCCN)C(N)=O` [Example 3, N-Acetyl-L-Arg-L-Cha-L-Nle-L-Cha-L-Orn amide] (Ac-R[Cha][Nle][Cha][Orn]-NH2; configuration not given here), at 10 µM the inhibition was 63%.
Same read-out and setting: with `CC(=O)NC(CCCNC(=N)N)C(=O)NC(CC1CCCCC1)C(=O)NC(CC1CCCCC1)C(=O)NC(CC1CCCCC1)C(=O)NC(CCC(=O)O)C(N)=O` [Example 4, N-Acetyl-L-Arg-L-Cha-L-Cha-L-Cha-D-Glu amide] (Ac-R[Cha][Cha][Cha]E-NH2; configuration not given here) the figure was 78%; with `[H]/N=C(\N)NCCCC(NC(=O)C(Cc1ccc(O)cc1)NC(=O)C1CCCN1C(=O)C(CC1CCCCC1)NC(=O)C(CCCN/C(N)=N/[H])NC(C)=O)C(N)=O` [Example 5, N-Acetyl-L-Arg-L-Cha-D-Pro-D-Tyr-L-Arg amide], 98%.
On the same count and under the same terms, the figure for `[H]/N=C(\N)NCCCC(NC(C)=O)C(=O)NC(CC1CCCCC1)C(=O)NC(CC1CCCCC1)C(=O)NC(CC1CCCCC1)C(=O)NC(CCCN)C(N)=O` [Example 6, N-Acetyl-L-Arg-L-Cha-L-Cha-L-Cha-L-Orn amide] is 71%; for `CCCCC(NC(=O)C(CC1CCCCC1)NC(=O)C(CCCNC(=N)N)NC(C)=O)C(=O)NC(CC1CCCCC1)C(N)=O` [Example 7, N-Acetyl-L-Arg-L-Cha-L-Nle-L-Cha amide] (Ac-R[Cha][Nle][Cha]-NH2; configuration not given here) it is 60%.

The same assay, now with this note: peptide concentration of 25 μM.
As for `[H]/N=C(\N)NCCCC(NC(C)=O)C(=O)NC(CC1CCCCC1)C(=O)NC(CCCC)C(=O)NC(CC1CCCCC1)C(=O)NC(CCC(N)=O)C(N)=O` [Example 1, N-Acetyl-L-Arg-L-Cha-L-Nle-L-Cha-D-Gln amide], the inhibition at 25 µM stood at 66%.
Still for that read-out and setting: with `[H]/N=C(\N)NCCCC(NC(C)=O)C(=O)NC(CC1CCCCC1)C(=O)NC(CC(=O)O)C(=O)NC(CC1CCCCC1)C(N)=O` [Example 2, N-Acetyl-L-Arg-L-Cha-L-Asp-L-Cha amide] the figure was 68%.
